# Source: patent publication US8697629B2, “Modulation of intracellular signaling” (Angstrom Pharmaceuticals, Inc., priority 2010, dated 2014)
# “Also recorded” adds a separate entry of the source.
# Key:
# CD44 [1] = target: T1, CD44 (Homo sapiens, UniProt P16070); test: Immunoprecipitation of Å6Cbiotin-crosslinked SKOV3 polypeptides, HRP-SA blotting; type: binding; conditions: SKOV3 cells, 100 μM Å6Cbiotin, BS3 crosslinking, DF1485 anti-CD44
# T1 construct: endogenous in cells; host or cells: SKOV3 cells
# Description: In FIGS. 1 and 2 SKOV3 cells were incubated with or without 100 μM Å6Cbiotin (Å6CbioXL and ConXL, respectively) for 30 min at 4° C. The cells were then crosslinked with 5 mM bis(sulfosuccinimidyl) suberate (Sulfo-DSS or BS^3) for 30 min at 4° C. and Triton X-100 lysates generated. The lysates were pre-cleared by incubating with Protein A-agarose for 2 hr at room temperature. Aliquots representing 100 μg of the cleared lysates were then incubated overnight at room temperature with 20 μL of Protein A-agarose plus 2 μg of anti-Tenascin R (TnR; E-18, Santa Cruz Biotech.), anti-Tenascin C (TnC; 300-3, Santa Cruz Biotech.), anti-CD44 (DF1485, Santa Cruz Biotech.), anti-Plexin-A1 (Pl A1; H-60, Santa Cruz Biotech.) or murine IgG1 (Sigma Chem. Co.). After washing 5 times with lysis buffer, the immunoprecipitated polypeptides were eluted from the Protein A-agarose by boiling in SDS-PAGE sample buffer. The eluted material and 2 μg aliquots of the starting material were then subjected to SDS-PAGE, transfer to PVDF membranes and blotting with chemiluminescent horseradish peroxidase (HRP)-conjugated streptavidin (HRP-SA).
# In FIG. 3 SKOV3 cells were incubated with or without 100 μM Å6Cbiotin (Å6CbioXL and control, respectively) for 30 minutes at 4° C. The cells were then crosslinked with 5 mM BS3 for 30 min at 4° C. […]
# ERK 1/2 = ERK 1/2 phosphorylation (T202/Y204) in SKOV3 cells, immunoblot; type: cell-based
# Description: (§1) Cells were detached from their culture vessels by brief trypsinization, suspended in complete media and centrifuged at 250×g for 10 min at room temperature. The cell pellets were suspended in Dulbeco's phosphate buffered saline (DPBS) and re-centrifuged for a total of three washes. The cells were then re-suspended at 3.33E5/ml in 24 ml of either RPMI containing 0.5% BSA (Sigma Chem. Co. #A0336) (RPMI/BSA) or the conditioned media of growing NIH3T3 fibroblasts (10% FBS in DMEM) supplemented with 10 ng/ml vascular endothelial growth factor (VEGF) (CMN). The cells were then treated with or without 100 ug/ml soluble hyaluronic acid (HA; human umbilical, Calbiochem #385902) for 30 min at 37° C. under 5% CO2. Aliquots representing 2E6 cells were then plated into 10 cm culture dishes and A6 added to yield final concentrations of 0, 10, 100 and 1000 nM. The cells were cultured overnight (18 hr) at 37° C. under 5% CO2.
# (§2) After 18 hr of treatment, the media were aspirated from the 10 cm dishes and saved. The plates were washed 3 times with 4 ml of ice-cold DPBS which were pooled with the reserved non-adherent cells. The non-adherent cells were centrifuged at 250×g for 10 min at 4° C., washed twice with cold DPBS, drained and lysed in 50 ul of cold RIPA buffer (ThermoScientific #89901) containing cocktails of broad spectrum phosphatase inhibitors (Calbiochem #524625; used at 2× final concentration) and protease inhibitors (Sigma #P8340) (RIPA/inh.). The 10 cm dishes were drained of remaining wash and the adherent cells lysed by scraping in 200 μL of cold RIPA/inh. For each test condition, the lysates of the non-adherent and adherent populations were combined, vortexed and then centrifuged at 14,000 rpm at 4° C. for 20 min. Aliquots of the cleared lysates were frozen at −80° C. immediately. A small aliquot was reserved for total protein analysis using a BCA Protein Assay Kit (Calbiochem #71285-3).
# (§3) Samples representing 20 μg of total protein of each lysate were solubilized in the presence of 50 mM Tris pH 6.8, 10% glycerol, 2% SDS and 100 mM DTT for 5 min at 95° C. and then loaded onto 10-20% acrylamide gels (BioRad #345-0044, Tris-HCl, 1 mm, 26 well, 15 μL/well). Electrophoresis was performed using Laemli electrophoresis buffer (0.1% SDS, 25 mM Tris, 192 mM glycine) at 200 V, constant voltage, for one hour. Upon completion of electrophoresis, the proteins were transferred to Immun-Blot PVDF membranes (BioRad #162-0238) in ice-cold 20% methanol in 25 mM Tris, 192 mM glycine for 2 hr at 0.5 Amps, constant current/blotting apparatus. The membranes were then cut vertically between molecular weight markers and in half at the 64 kDa marker to generate pieces for screening of higher molecular weight proteins (e.g., FAK) and lower molecular weight proteins (e.g., MEK and GAPDH). The blots were then blocked for a minimum of 4 hrs at room temperature in 3% bovine serum albumin (Sigma A0336) in 50 mM Tris, pH 7.4, 145 mM NaCl, 0.05% Tween-20 (TTBS) containing 0.05% sodium azide.
# Upon completion of the primary antibody incubation, the blots were washed three times for 10 min in TTBS and then incubated with 1/25,000 dilutions of peroxidase-conjugated donkey anti-mouse IgG (Jackson ImmunoResearch #715-035-150) or peroxidase-conjugated donkey anti-rabbit IgG (Jackson ImmunoResearch #711-035-152) in TTBS containing 3% BSA for one hour at room temperature. […]
# CD44 [2] = target: T1, CD44; test: Dimerization of CD44 in SKOV3 cells, anti-CD44 B-F24 immunoblot; type: cell-based; conditions: SKOV3 cultured 20 hr with 1 or 10 μM Å6, non-reducing
# Description: In FIG. 13 SKOV3 cells were cultured for 20 hr with no additions, 1 or 10 μM Å6 or 100 ng/ml PMA. Triton X-100 lysates were generated and further solubilized in SDS-PAGE sample buffer under non-reducing conditions. Aliquots representing 7.5 μg of cellular protein were subjected to SDS-PAGE followed by immunoblot analysis with the anti-CD44 murine monoclonal B-F24. The presence of stained higher molecular weight bands can be indicative of CD44 dimers and/or oligomers.
# PKCalpha = PKCalpha phosphorylation in SKOV3 cells, immunoblot; type: cell-based
# Description: as §1, §2
# as §3, with “The blots were then blocked for a minimum of 4 hrs at room temperature in 3% bovine serum albumin (Sigma A0336) in 50 mM Tris, pH 7.4, 145 mM NaCl, 0.05% Tween-20 (TTBS) containing 0.05% sodium azide.” left out
# T1 sequence (P16070 21-742): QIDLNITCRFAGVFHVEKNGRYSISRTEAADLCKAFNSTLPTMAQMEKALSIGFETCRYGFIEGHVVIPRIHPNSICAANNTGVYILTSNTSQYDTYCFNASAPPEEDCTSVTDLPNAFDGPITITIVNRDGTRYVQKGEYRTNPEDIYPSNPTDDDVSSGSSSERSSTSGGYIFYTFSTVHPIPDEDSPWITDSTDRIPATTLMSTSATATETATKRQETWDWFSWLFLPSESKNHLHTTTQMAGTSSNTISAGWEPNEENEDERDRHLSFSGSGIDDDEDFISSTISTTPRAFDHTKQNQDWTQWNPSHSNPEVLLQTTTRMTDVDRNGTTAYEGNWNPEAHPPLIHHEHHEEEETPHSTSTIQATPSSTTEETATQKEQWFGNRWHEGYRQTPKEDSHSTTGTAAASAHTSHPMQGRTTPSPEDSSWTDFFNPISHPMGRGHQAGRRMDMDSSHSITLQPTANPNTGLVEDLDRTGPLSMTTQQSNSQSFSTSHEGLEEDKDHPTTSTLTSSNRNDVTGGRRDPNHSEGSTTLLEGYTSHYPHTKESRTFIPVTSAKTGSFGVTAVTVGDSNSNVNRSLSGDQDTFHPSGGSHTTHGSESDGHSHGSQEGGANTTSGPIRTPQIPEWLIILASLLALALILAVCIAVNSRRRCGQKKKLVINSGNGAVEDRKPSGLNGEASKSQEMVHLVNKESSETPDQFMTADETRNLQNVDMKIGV
substance,measurement,setting,value
acetyl-Lys-Pro-Ser-Ser-Pro-Pro-Glu-Glu-NH2 (Ac-KPSSPPEE-NH2) [Å6],target of the peptide identified by anti-CD44 immunoprecipitation,CD44 [1],targets CD44; also recorded: confirm CD44 as the target
same,pERK/Erk,ERK 1/2; CM/V,appears to have increased
same,pERK/Erk,ERK 1/2; CM/V with HA present,decreased
same,pERK/Erk,ERK 1/2; basal media (RPMI/BSA),increased pERK/Erk in a dose dependent manner
same,pErk/Erk response to HA,ERK 1/2; basal media with HA,decreased this response to HA
same,CD44 higher molecular weight bands (dimers and/or oligomers),CD44 [2],higher molecular weight bands are formed
same,total PKCalpha,PKCalpha; CM/V cultured samples,decreased
same,pPKCa/PKCa,PKCalpha; CM/V in the absence of HA,decreased
same,pPKCa/PKCa,PKCalpha; in the presence of HA,appears to have further enhanced
